Source: patent publication US5552422A, “Aryl substituted 5,5 fused aromatic nitrogen compounds as anti-inflammatory agents” (Merck Frosst Canada, Inc., priority 1995, dated 1996)

How the values were obtained:
rat paw edema = details: po, carrageenan paw edema, 3 hr
Description: Male Sprague-Dawley rats (150-200 g) were fasted overnight and were given po either vehicle (1% methocel or 5% Tween 80) or a test compound. One hr later, a line was drawn using a permanent marker at the level above the ankle in one hind paw to define the area of the paw to be monitored. The paw volume (V0) was measured using a plethysmometer (Ugo-Basile, Italy) based on the principle of water displacement. The animals were then injected subplantarly with 50 μl of 1% carrageenan solution in saline (FMC Corp, Maine) into the paw using an insulin syringe with a 25-gauge needle (i.e., 500 μg carrageenan per paw). Three hr later, the paw volume (V3) was measured and the increases in paw volume (V3 -V0) were calculated. The animals were sacrificed by CO2 aphyxiation and the absence or presence of stomach lesions scored. Data were compared with the vehicle-control values and percent inhibition calculated. […] All treatment groups were coded to eliminate observer bias.

Cox-2 = target: T1, Cox-2 (Homo sapiens, UniProt P35354); test: Human whole blood assay, Cox-2 (LPS-induced PGE2 production); type: cell-based; details: PGE2 after LPS induction, 24 hours
T1 construct: incubation of human whole blood with LPS (lipopoly saccharide), which induces Cox-2; endogenous in cells
T1 sequence (P35354 18-604): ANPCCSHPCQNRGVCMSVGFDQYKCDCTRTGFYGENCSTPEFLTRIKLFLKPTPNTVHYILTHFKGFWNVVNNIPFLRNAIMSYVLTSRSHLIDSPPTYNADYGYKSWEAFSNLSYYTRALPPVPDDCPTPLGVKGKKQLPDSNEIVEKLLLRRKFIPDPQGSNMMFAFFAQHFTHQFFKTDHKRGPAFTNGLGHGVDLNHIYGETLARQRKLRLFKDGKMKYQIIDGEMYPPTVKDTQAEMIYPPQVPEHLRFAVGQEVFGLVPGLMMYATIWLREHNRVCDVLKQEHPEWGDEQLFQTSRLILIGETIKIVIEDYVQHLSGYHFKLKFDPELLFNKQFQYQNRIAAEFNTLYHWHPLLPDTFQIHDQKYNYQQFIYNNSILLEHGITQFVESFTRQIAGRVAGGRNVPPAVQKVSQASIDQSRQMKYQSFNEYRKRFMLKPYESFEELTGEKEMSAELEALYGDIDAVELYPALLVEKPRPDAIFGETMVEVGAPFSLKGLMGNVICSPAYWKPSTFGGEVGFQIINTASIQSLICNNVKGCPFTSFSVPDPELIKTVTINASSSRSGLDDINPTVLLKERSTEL
Description: (§1) Immediately following blood clotting, platelets are activated through a thrombin-mediated mechanism.
Fresh blood was collected in heparinized tubes by venipuncture from both male and female volunteers. The subjects had no apparent inflammatory conditions and had not taken any NSAIDs for at least 7 days prior to blood collection. Plasma was immediately obtained from a 2 mL blood aliquot to use as blank (basal levels of PGE2).
(§2) In the assay, inhibition is determined by measuring the amount of prostaglandin E2 (PGE2) synthesized in the presence of arachidonic acid, cyclooxygenase-1 or cyclooxygenase-2 and a putative inhibitor.

Cox-1 = target: T2, Cox-1 (Homo sapiens, UniProt P23219); test: Human whole blood assay, Cox-1 (clotting-induced TxB2 production); type: cell-based; details: TxB2 following blood clotting
T2 construct: platelets in whole blood contain a large amount of the Cox-1 enzyme; endogenous in cells; host or cells: platelets in fresh human whole blood (clotting)
T2 sequence (P23219 24-599): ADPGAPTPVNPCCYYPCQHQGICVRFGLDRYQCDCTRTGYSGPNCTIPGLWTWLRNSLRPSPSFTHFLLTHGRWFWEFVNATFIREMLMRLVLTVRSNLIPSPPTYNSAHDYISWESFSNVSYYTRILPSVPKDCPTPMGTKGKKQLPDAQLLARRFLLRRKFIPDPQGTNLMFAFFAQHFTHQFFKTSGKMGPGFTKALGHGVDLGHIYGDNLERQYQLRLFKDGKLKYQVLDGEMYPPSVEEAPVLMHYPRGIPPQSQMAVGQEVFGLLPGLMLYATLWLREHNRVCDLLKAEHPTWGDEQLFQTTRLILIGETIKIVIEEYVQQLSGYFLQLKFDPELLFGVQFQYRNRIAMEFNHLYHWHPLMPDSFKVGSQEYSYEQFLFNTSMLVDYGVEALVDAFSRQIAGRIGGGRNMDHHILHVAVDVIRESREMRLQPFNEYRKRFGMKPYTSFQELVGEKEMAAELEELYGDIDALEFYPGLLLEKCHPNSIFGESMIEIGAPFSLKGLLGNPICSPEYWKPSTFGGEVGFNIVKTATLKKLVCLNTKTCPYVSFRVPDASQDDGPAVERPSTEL
Description: as §1
Aliquots of 500 μL were immediately transferred to siliconized microcentrifuge tubes preloaded with 2 μL of either DMSO or a test compound at final concentrations varying from 10 nM to 30 μM. The tubes were vortexed and incubated at 37° C. for 1 hour to allow blood to clot.
as §2

IC50 (Cox-2)	IC50 (Cox-1)	SMILES	ED50 (rat paw edema)
–	–	COc1ccc2c(c1)c(CC(=O)O)c(C)n2C(=O)c1ccc(Cl)cc1 [Indomethacin, indomethacin]	2 mg/kg
0.33 µM	> 30 µM	CS(=O)(=O)c1ccc(-c2c(-c3ccccc3)nc3sccn23)cc1 [Example 1, 5-(4-(Methylsulfonyl)phenyl)-6-phenylimidazo[2,1-b]thiazole]	–
